# Measurements: patent US12178840B2, “Method and compositions comprising a CT20 peptide” (UNIVERSITY OF CENTRAL FLORIDA RESEARCH FOUNDATION, INC., priority 2014, dated 2024)
# Residues, ends and D or L forms follow the SMILES beside them.
# Assays:
# MCF-10A cells = test: Biological effects of CT20 in HBPE-NPs in normal control epithelial cells; type: cell-based, human; conditions: CT20 (˜3.4 nM) in HBPE-NPs
# Method: This triggered hyperpolarization of the mitochondrial membrane and fusion-like aggregation (FIG. 3B) that impaired mitochondrial redistribution, ATP production, and F-actin polymerization (FIG. 3C). Cells remained viable during these “initiating events” (FIG. 3D). However, at 6 hours post-CT20 treatment, cells began detaching from the substrate (fibronectin) (FIG. 3E). This was preceded by decreased expression of integrins (β1 integrin is shown; FIG. 3F). By 24 hours post-CT20 treatment, “effector events” caused by peptide-induced detachment were detected, including the activation of caspases (FIG. 3G), the induction of autophagy (FIG. 3H), and increased ROS production (FIG. 3I). Cell death (anoikis), indicated by membrane asymmetry, was detected in cancer cells by 48 hours (FIG. 3J).
# CCTβ in MCF-10A cells = target: T1, CCTβ in MCF-10A cells (Homo sapiens, UniProt P78371); test: In-cell pull down (CT20p-biotin in HBPE-nanoparticles), blot for CCTβ; type: cell-based; conditions: whole cell lysates
# T1 construct: delivered to viable MDA-MB-231 and MCF-10A cells, followed by gentle cell lysis; endogenous in cells; host or cells: MCF-10A (untransfected)
# Method: (§1) Pull down experiments: Lysate pull-downs were performed with 200 ug cell lysate, obtained by douncing as described above. Lysates were pre-cleared with streptavidin-agarose beads (Pierce), then incubated with […] of CT20-Biotin or biotin for 3 hours at room temperature, followed by overnight incubation at 4° C. with streptavidin-agarose beads. Beads were washed thoroughly with wash buffer (25 mM Tris, 150 mM NaCl, 0.1% NP40, pH7.4), then heated in 4× loading buffer (Invitrogen) for analysis by SDS-PAGE. Mass spectrometric analysis was performed by Moffit Cancer Center (Tampa, FL). Mass spectrometry results presented are of proteins with at least two unique peptides identified, and that were not recovered with biotin-only pull down. In-cell pull downs were performed by first delivering CT20p-Biotin encapsulated in nanoparticles to viable cells at a dose of 75 μg/mL for varying lengths of time. Following treatment, cells were collected and lysed by douncing. 200 ug of cell lysate were then incubated with streptavidin-agarose beads overnight at 4° C., and pull-down was completed as described above. […]
# (§2) Because pull downs performed in cell lysates may emphasize non-specific protein interactions, we designed an in-cell pull down assay to better reflect interactions in the intracellular environment. […] Indeed, no pull down was detected with DiI-loaded nanoparticles.
# CCTβ in MDA-MB-231 cells = target: T2, CCTβ in MDA-MB-231 cells (Homo sapiens, UniProt P78371); test: as above; type: cell-based; conditions: whole cell lysates
# T2 construct: delivered to viable MDA-MB-231 and MCF-10A cells, followed by gentle cell lysis; endogenous in cells; host or cells: MDA-MB-231
# Method: as §1, §2
# [1] = tested on: tubulin in MDA-MB-231 cells; test: Fixed cell immunofluorescence of tubulin; type: cell-based, human; conditions: 24 hours of CT20p treatment
# Method: (§3) Fixed cell immunofluorescence: Cells were seeded on glass coverslips (Fisher) in a 6-well plate at a density of 150,000 cells/well. Cells at 60% confluency were treated with CT20p or left untreated for 24 hours. After CT20p treatment, cells were stained with Mitotracker Red CMXRos (Life Technologies) at a concentration of 200 nM for 30 minutes, before being fixed in ice cold methanol for 10 minutes at −20° C. Cells were then permeabilized in 0.1% Triton X-100 for 10 minutes at 37° C. Samples were blocked in 5% normal goat serum (Santa Cruz) for 30 minutes at 37° C., then incubated with primary antibody α-tubulin (DM1A) (Santa Cruz) for 3 hours at 37° C. Secondary antibody was goat α-mouse IgG-FITC (Santa Cruz) and was applied for 1 hour at room temperature. Coverslips were mounted in UltraCruz mounting media (Santa Cruz), which contains DAPI for nuclear staining. Images were obtained with a Zeiss LSM 710 microscope, using a Zeiss 63× Pan-Apocromat oil immersion lens and Zeiss Zen software. To determine average tubulin levels per cell, the amount of FITC fluorescence intensity per region of interest was divided by the number of cells in the field. At least four images containing between 5 and 12 cells were quantified for each condition. Image analysis was done using Volocity software (Perkin Elmer).
# CT20p's effect on the other main client of CCT, tubulin, was also examined. […]
# tubulin in MCF-10A cells = test: Fixed cell immunofluorescence of tubulin; type: cell-based, human; conditions: 24 hours of CT20p treatment
# Method: as §3, with “Elmer). […]” for “Elmer).”
# [2] = tested on: cells isolated from paired normal tissue; test: Lethality in cells isolated from paired normal tissue; type: cell-based, human; conditions: CT20 peptide in HBPE-NPs
# From the text: 40× magnification. CCTβ was detected in invasive breast cancer.
# The lethality of CT20 was also examined in cells isolated from primary breast tumors and paired normal tissue. […] To this end, the levels of CCTβ were examined in a pilot tissue array of breast cancer tissue cores by immunohistochemistry (IHC) and detected CCTβ in invasive breast cancer (FIG. 14B).
structure (smiles),measurement,setting,value
CC[C@H](C)[C@H](NC(=O)[C@@H](NC(=O)[C@H](CC(C)C)NC(=O)[C@H](CO)NC(=O)[C@H](C)NC(=O)[C@@H](NC(=O)[C@H](CC(C)C)NC(=O)[C@@H](NC(=O)CNC(=O)[C@H](C)NC(=O)[C@@H](NC(=O)[C@H](Cc1ccccc1)NC(=O)[C@@H](NC(=O)[C@@H](NC(=O)[C@@H](NC(C)=O)C(C)C)[C@@H](C)O)[C@@H](C)CC)C(C)C)C(C)C)[C@@H](C)O)[C@@H](C)O)C(=O)N[C@@H](Cc1c[nH]c2ccccc12)C(=O)N[C@@H](CCCCN)C(=O)N[C@@H](CCCCN)C(=O)N[C@@H](CCSC)C(=O)NCC(N)=O [CT20] (Ac-VTIFVAGVLTASLTIWKKMG-NH2),Cytoskeletal impairment and cell death in control epithelial cell line,MCF-10A cells,not observed
same,Cytoskeletal impairment and cell death in control epithelial cell line,MCF-10A cells; listed as CT20 peptide,minimal cell death
same,Effect on total CCTβ protein levels,CCTβ in MCF-10A cells,does not affect
same,Effect on total CCTβ protein levels,CCTβ in MDA-MB-231 cells,does not affect
same,Amount of tubulin per cell,[1],significant decrease
same,Amount of tubulin per cell,tubulin in MCF-10A cells,no significant loss
same,Lethality,[2],not the normal cells
